Laboratory results from article PMC7586797, “Phase 1 Study to Evaluate the Effect of the Investigational Anticancer Agent Sapanisertib on the QTc Interval in Patients With Advanced Solid Tumors” (Clinical Pharmacology in Drug Development, 2020).
Several values for one entry are separate records, joined by “and”; a condition that tells them apart may be missing. Equal entries are not always repeated. Where two headings read alike, the source gives them in different places.

Experiment: Plasma pharmacokinetics after single 40 mg oral dose (LC-MS/MS, noncompartmental)
Type: in vivo, human
Details: 40 mg single oral dose; for AUC(0-inf) / Cmax / Tmax / half-life: human, po, 40 mg
Description: On cycle 1 day 1, triplicate ECGs and plasma samples for PK were collected from patients ≤15 minutes prior to dosing and at 15 minutes; 30 minutes; and 1‐, 1.5‐, 2‐, 2.5‐, 3‐, 4‐, 6‐, 8‐, and 10‐hour time points after receiving a single oral dose of 40‐mg sapanisertib. The Holter recorders and ECG leads were removed from patients after collection of the 10‐hour time point ECG on day 1, following which patients were furloughed from site. Additional collections of ECGs and plasma samples for PK were conducted at 24 (cycle 1 day 2) and 48 hours (cycle 1 day 3) after dosing. After the first week, that is, cycle 1 day 8, patients had the option to continue to receive treatment with sapanisertib at a dose of 30 mg once weekly in continuous 28‐day cycles until disease progression, unacceptable toxicity, withdrawal of consent, or completion of the 12‐month maximum study duration.
Plasma samples were analyzed for sapanisertib using a validated liquid chromatography with tandem mass spectrometry method with deuterated sapanisertib used as the internal standard. Multiple reactant monitoring was performed using a positive electrospray method for the mass transitions (m/z) of 310.0 to 268.1 for sapanisertib and 317.0 to 269.1 for deuterated sapanisertib. A Shimadzu high‐pressure liquid chromatography system and Sciex API 4000 tandem mass spectrometry system were used with an Agilent Eclipse plus C18, 50 × 4.6 mm, 3.50‐µm column. For extraction, 50 µL of diluent (0.1% formic acid in acetonitrile/water, 50:50, v/v) and 20 µL of internal standard solution (0.5 µg/mL in diluent) were added to 50 µL of ethylenediaminetetraacetic acid plasma followed by vortex mixing. Plasma proteins were precipitated by adding 500 µL of 0.2% formic acid in acetonitrile followed by vortex mixing for 2 minutes and centrifugation for 5 minutes. A 40‐µL aliquot of the supernatant was transferred to a high‐pressure liquid chromatography vial containing 400 µL of reconstitution solution (10 mM ammonium formate and 10 mM citric acid in acetonitrile/water, 20:80, v/v). Injection volume was 10 µL. A gradient mobile phase (from 20% to 98%) was used, composed of mobile phase A: 0.1% formic/4 mM ammonium formate in water and mobile phase B: 0.1% formic acid and 4 mM ammonium formate in acetonitrile/water 98:2, v/v). The sapanisertib retention time was 1.7 minutes. The dynamic range of the assay was 1 to 1000 ng/mL. Assay accuracy expressed as %bias for the quality control samples ranged from –4.0% to –2.7% and assay precision expressed as percentage coefficient of variation (%CV) for quality control samples, ranged from 3.0% to 9.5% in plasma.
PK parameters were calculated by noncompartmental methods using WinNonLin Professional version 6.1 (Certara, Princeton, New Jersey). The PK analysis population was defined as all patients who received at least 1 dose of sapanisertib and had sufficient concentration‐time data to calculate ≥1 PK parameters. The safety population included all patients who received ≥1 dose of sapanisertib, according to the National Cancer Institute Common Terminology Criteria for Adverse Events, version 4.03.

**Q.** With `CC(C)n1nc(-c2ccc3oc(N)nc3c2)c2c(N)ncnc21` [sapanisertib] as the compound, how does the “CL (apparent clearance), Geometric mean (%CV)” value (empty stomach) read?
**A.** 16.1 L/h and 16.1 (46.3) L/h

**Q.** What about the “CL (apparent clearance), Mean (SD)” value (empty stomach) of the same compound?
**A.** 18.3 (8.5) L/h

**Q.** And the “CL (apparent clearance), Median (range)” value (empty stomach)?
**A.** 18.0 (3.1–41.8) L/h

**Q.** And the AUC(0-inf) (empty stomach, read-out: AUC∞, Geometric mean (%CV))?
**A.** 2480 ng·h/mL

**Q.** What about the AUC(0-inf) (empty stomach, read-out: AUC∞, Mean (SD)) of the same compound?
**A.** 2990 ng·h/mL

**Q.** And the AUC(0-inf) (empty stomach, read-out: AUC∞, Median (range))?
**A.** 2220 ng·h/mL

**Q.** And the Cmax (empty stomach, read-out: Cmax, Geometric mean (%CV))?
**A.** 297 ng/mL

**Q.** What about the Cmax (empty stomach, read-out: Cmax, Mean (SD)) of the same compound?
**A.** 337 ng/mL

**Q.** What about the Cmax (empty stomach, read-out: Cmax, Median (range)) of the same compound?
**A.** 317 ng/mL

**Q.** And the Tmax (empty stomach, read-out: Tmax, Geometric mean (%CV))?
**A.** 1.73 h

**Q.** What about the Tmax (empty stomach, read-out: Tmax, Mean (SD)) of the same compound?
**A.** 2.51 h

**Q.** What about the Tmax (empty stomach, read-out: Tmax, Median (range)) of the same compound?
**A.** 1.52 h

**Q.** What about the half-life (no unit in table (hours), read-out: T1/2 (terminal disposition half-life), Geometric mean (%CV) (converted)) of the same compound?
**A.** 9.06 h

**Q.** What about the half-life (no unit in table (hours), read-out: T1/2 (terminal disposition half-life), Mean (SD) (converted)) of the same compound?
**A.** 9.48 h

**Q.** And the half-life (no unit in table (hours), read-out: T1/2 (terminal disposition half-life), Median (range) (converted))?
**A.** 9.07 h

**Q.** And the half-life (standard deviation 2.9 hours, read-out: Mean plasma half-life (converted))?
**A.** 9.5 h
